Patent US20230117324A1, “OXAZINE MONOACYLGLYCEROL LIPASE (MAGL) INHIBITORS” (Hoffmann-La Roche Inc., priority 2018, published 2023)

Experiments:
[1] = target: T1, MAGL (recombinant wild-type) (Homo sapiens, UniProt Q99685); experiment: MAGL inhibition, 4-NPA assay (hydrolysis of 4-nitrophenylacetate, absorbance at 405 nm); assay type: biochemical; details: 4-NPA assay (footnote [a]: values not marked [b])
T1 sequence (Q99685 1-303): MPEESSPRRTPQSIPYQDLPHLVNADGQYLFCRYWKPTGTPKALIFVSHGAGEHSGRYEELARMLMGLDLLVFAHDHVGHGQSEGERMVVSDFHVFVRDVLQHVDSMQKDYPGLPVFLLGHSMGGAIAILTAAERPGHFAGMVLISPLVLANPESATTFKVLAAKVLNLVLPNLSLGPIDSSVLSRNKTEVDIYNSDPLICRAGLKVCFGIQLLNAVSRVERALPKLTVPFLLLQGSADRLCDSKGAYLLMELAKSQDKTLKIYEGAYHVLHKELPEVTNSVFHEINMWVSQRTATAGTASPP
Method: Compounds were profiled for MAGL inhibitory activity by measuring the enzymatic activity of MAGL by following the hydrolysis of 4-nitrophenylacetate resulting in 4-nitrophenol, which absorbs at 405-412 nm (G. G. Muccioli, G. Labar, D. M. Lambert, Chem. Bio. Chem. 2008, 9, 2704-2710). This assay is hereinafter abbreviated “4-NPA assay”.
The assay was carried out in 384 well assay plates (black with clear bottom, non-binding surface treated, Corning Ref. 3655) in a total volume of 40 μL. Compound dilutions were made in 100% DMSO (VWR Chemicals 23500.297) in a polypropylene plate in 3-fold dilution steps to give a final concentration range in the assay from 25 μM to 1.7 nM. 1 μL compound dilutions (100% DMSO) were added to 19 μL MAGL (recombinant wild-type) in assay buffer (50 mM TRIS (GIBCO, 15567-027), 1 mM EDTA (Fluka, 03690-100 mL)). The plate was shaked for 1 min at 2000 rpm (Variomag Teleshake) and then incubated for 15 min at RT. To start the reaction, 20 μL 4-Nitrophenlyacetate (Sigma N-8130) in assay buffer with 6% EtOH was added. The final concentrations in the assay were 1 nM MAGL and 300 μM 4-Nitrophenylacetate. After shaking (1 min, 2000 rpm) and 5 min incubation at RT, the absorbance at 405 nm was measured for a first time (Molecular Devices, SpectraMax Paradigm). A second measurement was then done after incubation for 80 min at RT. From the two measurements, the slope was calculated by subtracting the first from the second measurement.

MAGL = target: T2, MAGL (Homo sapiens, UniProt Q99685); experiment: MAGL inhibition, 2-AG assay (hydrolysis of 2-arachidonoylglycerol, arachidonic acid by mass spectrometry); assay type: biochemical; details: 2-AG assay (footnote [b])
T2 sequence (Q99685 1-303): T1 sequence (Q99685 1-303)
How it was run: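 Human MAGL […] was preincubated 15 min at RT with compound ([…], 3-fold steps) in 50 mM Tris, 1 mM EDTA, 0.01% Tween. 2-AG (8 μM) was then added for 30 min at RT. Arachidonic acid was quantified by RapidFire SPE–triple quadrupole MS in negative ESI as its ratio to a d8-arachidonic acid standard.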

| IC50 [1] [nM] | IC50 (MAGL) [nM] | SMILES |
| --- | --- | --- |
| 3 | – | O=C1CO[C@H]2CCN(C(=O)N3CCC(C(c4ccccc4)c4ccccc4)CC3)C[C@H]2N1 (racemic) [Example 1, rac-(4aR,8aS)-6-(4-Benzhydrylpiperidine-1-carbonyl)-4,4a,5,7,8,8a-hexahydropyrido[4,3-b][1,4]oxazin-3-one] |
| 2 | – | O=C1CO[C@H]2CCN(C(=O)N3CCC(c4cn(CC5CC5)c5ccc(Cl)cc45)CC3)C[C@H]2N1 (racemic) [Example 2, rac-(4aR,8aS)-6-(4-(5-Chloro-1-(cyclopropylmethyl)-1H-indol-3-yl)piperidine-1-carbonyl)hexahydro-2H-pyrido[4,3-b][1,4]oxazin-3(4H)-one] |
| 3 | – | Cn1cc(C2CCN(C(=O)N3CC[C@@H]4OCC(=O)N[C@@H]4C3)CC2)c2cc(Cl)ccc21 (racemic) [Example 3, rac-(4aR,8aS)-6-(4-(5-Chloro-1-methyl-1H-indol-3-yl)piperidine-1-carbonyl)hexahydro-2H-pyrido[4,3-b][1,4]oxazin-3(4H)-one] |
| 5 | – | O=C1CO[C@H]2CCN(C(=O)N3CCC(C4c5ccccc5-c5ccccc54)CC3)C[C@H]2N1 (racemic) [Example 4, rac-(4aR,8aS)-6-(4-(9H-Fluoren-9-yl)piperidine-1-carbonyl)hexahydro-2H-pyrido[4,3-b][1,4]oxazin-3(4H)-one] |
| 15 | – | COCCC(c1ccc(F)cc1)C1CCN(C(=O)N2CC[C@@H]3OCC(=O)N[C@@H]3C2)CC1 (mixture of isomers) [Example 6, rac-(4aR,8aS)-6-(4-(1-(4-Fluorophenyl)-3-methoxypropyl)piperidine-1-carbonyl)hexahydro-2H-pyrido[4,3-b][1,4]oxazin-3(4H)-one] |
| 43 | – | O=C1CO[C@H]2CCN(C(=O)N3CCC(c4c[nH]c5cc(F)ccc45)CC3)C[C@H]2N1 (racemic) [Example 7, rac-(4aR,8aS)-6-[4-(6-Fluoro-1H-indol-3-yl)piperidine-1-carbonyl]-4,4a,5,7,8,8a-hexahydropyrido[4,3-b][1,4]oxazin-3-one] |
| 91 | – | COC(c1ccc(F)cc1)C1CCN(C(=O)N2CC[C@@H]3OCC(=O)N[C@@H]3C2)CC1 (mixture of isomers) [Example 8, rac-(4aR,8aS)-6-(4-((4-Fluorophenyl)(methoxy)methyl)piperidine-1-carbonyl)hexahydro-2H-pyrido[4,3-b][1,4]oxazin-3(4H)-one] |
| 644 | – | O=C1CO[C@H]2CCN(C(=O)N3CCC(c4noc5ccc(F)cc45)CC3)C[C@H]2N1 (racemic) [Example 9, rac-(4aR,8aS)-6-(4-(5-Fluorobenzo[d]isoxazol-3-yl)piperidine-1-carbonyl)hexahydro-2H-pyrido[4,3-b][1,4]oxazin-3(4H)-one] |
| 5 | – | O=C1CO[C@H]2CCN(C(=O)N3CCN([C@H](c4ccccc4)c4ccc(Cl)cc4)CC3)C[C@H]2N1 (racemic) [Example 10, rac-(4aR,8aS)-6-(4-(rac-(4-Chlorophenyl)(phenyl)methyl)piperazine-1-carbonyl)hexahydro-2H-pyrido[4,3-b][1,4]oxazin-3(4H)-one] |
| 12 | – | O=C1CO[C@H]2CCN(C(=O)N3CCN(C(c4ccc(F)cc4)c4ccc(F)cc4)CC3)C[C@H]2N1 (racemic) [Example 12, rac-(4aR,8aS)-6-[4-[bis(4-Fluorophenyl)methyl]piperazine-1-carbonyl]-4,4a,5,7,8,8a-hexahydropyrido[4,3-b][1,4]oxazin-3-one] |
| 133 | – | O=C1CO[C@H]2CCN(C(=O)N3CCN(c4c[nH]c5ccc(Cl)cc45)CC3)C[C@H]2N1 (racemic) [Example 14, rac-(4aR,8aS)-6-(4-(5-Chloro-1H-indol-3-yl)piperazine-1-carbonyl)hexahydro-2H-pyrido[4,3-b][1,4]oxazin-3(4H)-one] |
| – | 0.07 | CC(C)(C)Cc1ccc(C2CN(C(=O)N3CC[C@@H]4OCC(=O)N[C@@H]4C3)C2)cc1 [Example 261, (4aR,8aS)-6-[3-[4-(2,2-Dimethylpropyl)phenyl]azetidine-1-carbonyl]-4,4a,5,7,8,8a-hexahydropyrido[4,3-b][1,4]oxazin-3-one] |
| – | 16 | O=C1CO[C@H]2CCN(C(=O)N3CCC(N4CCc5cc(Cl)ccc54)CC3)C[C@H]2N1 [Example 263, (4aR,8aS)-6-[4-(5-Chloroindolin-1-yl)piperidine-1-carbonyl]-4,4a,5,7,8,8a-hexahydropyrido[4,3-b][1,4]oxazin-3-one] |
| – | 146 | O=C1CO[C@H]2CCN(C(=O)N3CCC(N4Cc5cccc(Cl)c5C4)CC3)C[C@H]2N1 [Example 264, (4aR,8aS)-6-[4-(4-Chloroisoindolin-2-yl)piperidine-1-carbonyl]-4,4a,5,7,8,8a-hexahydropyrido[4,3-b][1,4]oxazin-3-one] |
| – | 58 | O=C1CO[C@H]2CCN(C(=O)N3CCC(N4CC5(CC5)c5cc(Cl)ccc54)CC3)C[C@H]2N1 [Example 265, (4aR,8aS)-6-[4-(5′-Chlorospiro[cyclopropane-1,3′-indoline]-1′-yl)piperidine-1-carbonyl]-4,4a,5,7,8,8a-hexahydropyrido[4,3-b][1,4]oxazin-3-one] |
| – | 457 | O=C1CO[C@H]2CCN(C(=O)N3CC(N4Cc5cccc(Cl)c5C4)C3)C[C@H]2N1 [Example 266, (4aR,8aS)-6-[3-(4-Chloroisoindolin-2-yl)azetidine-1-carbonyl]-4,4a,5,7,8,8a-hexahydropyrido[4,3-b][1,4]oxazin-3-one] |
| – | 530 | O=C1CO[C@H]2CCN(C(=O)N3CCC(c4cn(CCO)c5ccc(Cl)cc45)CC3)C[C@@H]2N1 [Example 269, (4aS,8aS)-6-[4-[5-Chloro-1-(2-hydroxyethyl)indol-3-yl]piperidine-1-carbonyl]-4,4a,5,7,8,8a-hexahydropyrido[4,3-b][1,4]oxazin-3-one] |
| – | 26 | O=C1CO[C@H]2CCN(C(=O)N3CC(c4ccc(N5CCC(C(F)(F)F)C5)cn4)C3)C[C@H]2N1 (stereo partly drawn) [Example 270, (4aR,8aS)-6-(3-(5-(3-(Trifluoromethyl)pyrrolidin-1-yl)pyridin-2-yl)azetidine-1-carbonyl)hexahydro-2H-pyrido[4,3-b][1,4]oxazin-3(4H)-one] |
| – | 2 | O=C1CO[C@H]2CCN(C(=O)N3CC(c4ccc(N5CCC(C(F)(F)F)C5)nc4)C3)C[C@H]2N1 (stereo partly drawn) [Example 273, (4aR,8aS)-6-[3-[6-[3-(Trifluoromethyl)pyrrolidin-1-yl]-3-pyridyl]azetidine-1-carbonyl]-4,4a,5,7,8,8a-hexahydropyrido[4,3-b][1,4]oxazin-3-one] |
| – | 4 | O=C1CO[C@H]2CCN(C(=O)N3CC(c4ccc(N5CCC(C(F)(F)F)C5)nc4)C3)C[C@H]2N1 (stereo partly drawn) [Example 275, (4aR,8aS)-6-[3-[6-[3S-or 3R-(trifluoromethyl)pyrrolidin-1-yl]-3-pyridyl]azetidine-1-carbonyl]-4,4a,5,7,8,8a-hexahydropyrido[4,3-b][1,4]oxazin-3-one] |
| – | 4 | O=C1CO[C@H]2CCN(C(=O)N3CC(c4ccc(C5CCCOC5)cc4)C3)C[C@H]2N1 (stereo partly drawn) [Example 276, (4aR,8aS)-6-[3-(4-Tetrahydropyran-3-ylphenyl)azetidine-1-carbonyl]-4,4a,5,7,8,8a-hexahydropyrido[4,3-b][1,4]oxazin-3-one] |
| – | 2 | COc1cc(CC(F)(F)F)ccc1C1CN(C(=O)N2CC[C@@H]3OCC(=O)N[C@@H]3C2)C1 [Example 277, (4aR,8aS)-6-[3-[2-Methoxy-4-(2,2,2-trifluoroethyl)phenyl]azetidine-1-carbonyl]-4,4a,5,7,8,8a-hexahydropyrido[4,3-b][1,4]oxazin-3-one] |
| – | 0.1 | CC(C)(C)COc1ccc(C2CN(C(=O)N3CC[C@@H]4OCC(=O)N[C@@H]4C3)C2)cc1 [Example 278, (4aR,8aS)-6-(3-(4-(Neopentyloxy)phenyl)azetidine-1-carbonyl)hexahydro-2H-pyrido[4,3-b][1,4]oxazin-3(4H)-one] |

| SMILES | IC50 [1] [nM] | IC50 (MAGL) [nM] |
| --- | --- | --- |
| CC(C)(C)Oc1ccc(C2CN(C(=O)N3CC[C@@H]4OCC(=O)N[C@@H]4C3)C2)cc1 [Example 262, (4aR,8aS)-6-[3-(4-tert-Butoxyphenyl)azetidine-1-carbonyl]-4,4a,5,7,8,8a-hexahydropyrido[4,3-b][1,4]oxazin-3-one] | – | 1 |
